Results as given in US20180000745A1, “CRUCIFERIN COATED NANOPARTICLES” (priority 2016, published 2018).

Tested on: Caco-2 cells
Assay: Cell uptake of coumarin-6-loaded particles by confocal microscopy
Format: cell-based
Conditions: 6 h incubation; particles 0.5 mg/mL, coumarin-6 […] in DMEM
Description: To study the cell uptake of nanoparticles in Caco-2 cells, coumarin-6, as a fluorescent marker, was encapsulated into the nanoparticles. The cellular uptake of coumarin-6-loaded nanoparticles was compared with free coumarin-6 (not encapsulated). In brief, 1 mL of coumarin-6 solution in ethanol at concentrations ranging from 10 to 400 μg/mL was mixed with 9 mL 2 mg/mL chitosan solution in 0.1 M acetic acid. 9 mL of 5 mg/mL cruciferin solution (solubilized at pH 12) was added dropwise to the solution while stirring. The pH of the suspension was adjusted to 5.5, stirred for 2 h and then centrifuged at 40000 g and 4° C. for 30 min, Loaded particles pellet was collected, washed twice with water and centrifuged to remove free coumarin-6. The labelled particles were re-suspended in DMEM medium at concentrations of 0.1, 0.5 and 1 mg/mL. The size and zeta potential of the re-suspended particles were measured. Caco-2 cells (10^5 cells/well) were seeded on cover glasses placed in 6-well plates (Costar, Corning, N.Y.), and incubated until cells were about 80% confluent. 2.5 mL of labelled-particles suspensions or free coumarin-6 solution in DMEM medium was added to each well and incubated for 6 h at 37° C. Then, the cells were washed three times with PBS to remove free nanoparticles and coumarin-6. Cell membranes were stained with 10 μg/mL Alexa Fluor 594-Concanavalin A conjugate in PBS for 10 min. […]

## CCN(CC)c1ccc2cc(-c3nc4ccccc4s3)c(=O)oc2c1 [free coumarin-6, Coumarin 6]
  fluorescence within cells (cell uptake): no noticeable signal was detected
